Measured values from patent US12685777B2, “Compositions, systems, and methods for modulating a target gene” (The Board of Trustees of the Leland Stanford Junior …, priority 2022, dated 2026).
Values joined by “and” are separate entries in the source; they are usually repeats but may differ in a detail not shown here. Identical values can stand only once. Like-named read-outs stand apart in the source and are kept apart here.

Tests used:
[1] = test system: primary human fibroblasts; assay: Cell viability of primary human fibroblasts; type: cell-based; conditions: 72 hours, read-out: EC50 of killing of fibroblasts
Procedure: Lymphoma and leukemia cells were cultured in RPMI-1640 (ATCC 30-2001)+10% FBS with antibiotics (100× PenStrep GIBCO #15140122). Primary human fibroblasts were obtained from ATCC (#CRL2522), cultured in DMEM+10% FBS with antibiotics and used at passages 3-5. Primary human tonsillar lymphocytes were a kind gift from M. M. Davis. Cells were routinely checked for mycoplasma and immediately checked upon suspicion. No cultures tested positive.
30,000 cells were plated in 100 μL media per well of a 96 well plate and treated with drug for indicated times and doses. A resazurin-based indicator of cell health (PrestoBlue, ThermoFisher #P50200) was added for 1.5 hours after which the fluorescence ratio at 560/590 nm was recorded. The background fluorescence was subtracted and the signal was normalized to DMSO-treated cells. EC50 measurements on cell lines were done with 4 biological repeats by separate cell passages maintained by 3 independent investigators. Fit of dose-response curves to data and statistical analysis was performed using drc package in R using the four-parameter log-logistic function.
After treatment, mouse tissue was harvested for RNA-seq and histology. […] Serum concentrations after 8 hours were -100 to 400-fold higher than therapeutic doses (FIG. 37, Panel C).

[2] = test system: BCL6 reporter; assay: BCL6 reporter assay (GFP) in KARPAS422 cells; type: cell-based, human; conditions: KARPAS422, 8 hours
Procedure: KARPAS422 cells were lentivirally transduced with a construct containing the reporter. […] Cells were washed in 2.5% FBS/PBS, 1:250 v/v of 7-AAD was added to distinguish live from dead cells, and harvested for flow cytometry on a BD Accuri. The GFP-positive gate were drawn off non-transduced cells and normalized to cells treated with DMSO.

[3] = target: T1, BRD4^BD1 (Homo sapiens, UniProt O60885); assay: Isothermal calorimetry (ITC), binary titration; type: binding; conditions: read-out: KD BRD4:TCIP1
T1 construct: 6xHis-TEV (N, cleaved yes)
Source text: The first one or two injections and outliers from instrument noise were routinely excluded. Data was fit to a one-site model using MicroCal LLC Origin software.
One reason for a broadening of the hook effect is the formation of cooperative protein-protein interactions induced by the drug, such as a molecular glue.

[4] = test system: BCL6 mRNA; assay: RT-qPCR of BCL6 isoforms; type: cell-based, human; conditions: 10 nM
Procedure: 12. RNA Extraction, qPCR, and Sequencing Library Preparation Cells were plated at 1 M/mL and harvested in TRIsure (Bioline #38033). RNA was extracted using Direct-zol RNA MicroPrep columns (Zymo #R^2062) treated with DNAseI. cDNA was prepared for RT-qPCR using the SensiFAST cDNA preparation kit according to manufacturer instructions (Bioline #65054). 1 μL of cDNA was used per RT-qPCR reaction prepared with SYBR Lo-ROX (Bioline #94020). For sequencing library preparation, polyA-containing transcripts were enriched for (NEB #E7490S) and prepared into paired-end libraries (NEB #E7760S). Libraries were sequenced on an Illumina NovaSeq (Novogene). 13. Western Blots
Thus, TCIPs can rewire a repressive negative feedback pathway into a positive feedback pathway, amplifying the potency of the molecule in killing cancer cells (model in FIG. 40, Panel D).

[5] = Measurement of serum half life (pharmacokinetics) in mice; type: in vivo
Procedure: Tests were performed to determine whether JWZ-7-7 is capable of maintaining sufficiently high blood levels for killing SCLC and DLBCL. Formulations for either IV or IP administration were prepared as follows:
• Concentration: 0.6 mg/ml • Composition: 5/5/90 DMSO/Tween80/saline • Dose: 5 μl/g body weight • Appearance: clear solution Formulation #2—Used for IP Animals • Concentration: 1 mg/ml • Composition: 5/5/90 DMSO/Tween80/saline • Dose: 10 μl/g body weight • Appearance: clear solution
After either IV or IP injection of 3 mice each with either 3 mg/Kg (IV) or 10 mg/Kg(IP), the levels of JWZ-7-7 were measured at the indicated intervals. The calculated T1/2 is 4.47 hours for IV injection and 5.63 hours for […].

[6] = mouse, 3 mg/Kg IV, individual mice and Avg., 3 mg/kg
[7] = mouse, 3 mg/Kg IV, individual mice and Avg., 3 mg/kg, mean
[8] = mouse, 10 mg/Kg IP, individual mice and Avg., 10 mg/kg
[9] = mouse, 10 mg/Kg IP, individual mice and Avg., 10 mg/kg, mean

CNC(=O)COc1cc2cc(Nc3nc(N4CCC(C(=O)NCCCCCCCNC(=O)C[C@@H]5N=C(c6ccc(Cl)cc6)c6c(sc(C)c6C)-n6c(C)nnc65)CC4)ncc3Cl)cc(OC)c2n(C)c1=O [TCIP1]
EC50 [1]: ~0.47 µM
Activation of BCL6 reporter [2]: about 25 fold
EC50 ([2]; read-out: EC50 of BCL6 reporter activation): 0.005 µM
Kd [3]: 5.08 µM
Time to upregulation of the long isoform of BCL6 mRNA [4]: 1 to 2 h

CNC(=O)COc1cc2cc(Nc3nc(N4CCC(C(=O)NCCCCCCCNC(=O)C[C@@H]5N=C(c6ccc(Cl)cc6)c6c(sc(C)c6C)-n6c(C)nnc65)CC4)ncc3Cl)cc(OC)c2n(C)c1=O [JWZ-7-7, (S)-1-(5-chloro-4-((8-methoxy-1-methyl-3-(2-(methylamino)-2-oxoethoxy)-2-oxo-1,2-dihydroquinolin-6-yl)amino)pyrimidin-2-yl)-N-(7-(2-(4-(4-chlorophenyl)-2,3,9-trimethyl-6H-thieno[3,2-f][1,2,4]triazolo[4,3-a][1,4]diazepin-6-yl)acetamido)heptyl)piperidine-4-carboxamide]
half-life ([5]; C57BL/6, mouse, serum, ip, 10 mg/kg, 10 mg/Kg IP, individual mice and Avg.): 5.63 h
Stability in serum ([5]; mouse): stable in serum
AUC% Extrap [5, 6]: 6.66% and 9.35% and 9.79%
AUCINF_obs [5, 6]: 797713 ng·min/mL and 444167 ng·min/mL and 988029 ng·min/mL
AUClast [5, 6]: 744580 min*ng/mL and 12.11 μM · hr and 402652 min*ng/mL and 6.55 μM · hr and 891309 min*ng/mL and 14.50 μM · hr
CI_obs [5, 6]: 3.8 mL/min/kg and 6.8 mL/min/kg and 3.0 mL/min/kg
Cmax [5, 6]: 31100 ng/mL and 14500 ng/mL and 36500 ng/mL
MRTINF_obs [5, 6]: 2.39 h and 2.14 h
T1/2 [5, 6]: 3.74 h and 3.93 h and 5.73 h
Vss_obs [5, 6]: 0.36 L/kg and 0.97 L/kg and 0.39 L/kg
AUC% Extrap [5, 7]: 8.60%
AUCINF_obs [5, 7]: 743303 ng·min/mL
AUClast [5, 7]: 679514 min*ng/mL and 11.06 μM · hr
CI_obs [5, 7]: 4.5 mL/min/kg
Cmax [5, 7]: 27367 ng/mL
MRTINF_obs [5, 7]: 2.04 h
Vss_obs [5, 7]: 0.57 L/kg
Cmax ([5]; mouse, 3 mg/Kg IV, individual mice and Avg., 3 mg/kg, mean, read-out: Cmax): 26.7 µM
Cmax ([5]; mouse, 3 mg/Kg IV, individual mice and Avg., 3 mg/kg, read-out: Cmax): 30.4 µM and 14.2 µM and 35.6 µM
AUC% Extrap [5, 8]: 42.22% and 42.00% and 38.85%
AUCINF_obs [5, 8]: 174254 ng·min/mL and 349182 ng·min/mL and 315593 ng·min/mL
AUClast [5, 8]: 100685 min*ng/mL and 1.64 μM · hr and 202511 min*ng/mL and 3.29 μM · hr and 192976 min*ng/mL and 3.14 μM · hr
Cl_obs [5, 8]: 57.4 mL/min/kg and 28.6 mL/min/kg and 31.7 mL/min/kg
Cmax [5, 8]: 389 ng/mL and 805 ng/mL and 885 ng/mL
T1/2 [5, 8]: 5.48 h and 6.32 h and 5.08 h
Tmax [5, 8]: 0.50 h and 1.00 h
AUC% Extrap [5, 9]: 41.03%
AUCINF_obs [5, 9]: 279676 ng·min/mL
AUClast [5, 9]: 165391 min*ng/mL and 2.69 μM · hr
Cl_obs [5, 9]: 39.2 mL/min/kg
Cmax [5, 9]: 693 ng/mL
Tmax [5, 9]: 0.53 h
Cmax ([5]; mouse, 10 mg/Kg IP, individual mice and Avg., 10 mg/kg, mean, read-out: Cmax): 0.68 µM
Cmax ([5]; mouse, 10 mg/Kg IP, individual mice and Avg., 10 mg/kg, read-out: Cmax): 0.38 µM and 0.79 µM and 0.86 µM
half-life ([5]; mouse, serum, iv, 3 mg/kg, 3 mg/Kg IV, individual mice and Avg.): 4.47 h
MRT inf ([5]; mouse, serum, iv, 3 mg/kg, 3 mg/Kg IV, individual mice and Avg., read-out: MRTINF_obs): 1.59 h
Tmax ([5]; mouse, serum, iv, 3 mg/kg, 3 mg/Kg IV, individual mice and Avg., read-out: Tmax): 0.08 h
